Experimental data published in ChEMBL document CHEMBL4732115, “Discovery of novel cell-penetrating and tumor-targeting peptide-drug conjugate (PDC) for programmable delivery of paclitaxel and cancer treatment” (Eur J Med Chem, 2021).
Active and inactive are the calls of the source. The rule behind the calls is not given here. Peptide text beside a SMILES is read from it. * marks the point of attachment. X1 = CC(=O)O[C@H]1C(=O)[C@@]2(C)[C@H]([C@H](OC(=O)c3ccccc3)[C@]3(O)C[C@H](OC(=O)[C@H](OC(=O)OCCS*)[C@@H](NC(=O)c4ccccc4)c4ccccc4)C(C)=C1C3(C)C)[C@]1(OC(C)=O)CO[C@@H]1C[C@@H]2O; X2 = NCCCC[C@H](N*)C(=O)NC(=O)C1CCC(=O)N1

Assays:
[1] = tested on: HT-29; test: Cytotoxicity against human HT-29 cells assessed as reduction in cell viability measured after 48 hrs by MTT assay; format: functional, cell-based; details: HT-29, 48 h
[2] = tested on: A2780; test: Cytotoxicity against human A2780 cells assessed as reduction in cell viability measured after 48 hrs by MTT assay; format: functional, cell-based; details: A2780, 48 h
[3] = Cytotoxicity against human A2780/PTX cells assessed as reduction in cell viability measured after 48 hrs by MTT assay; format: functional, cell-based
[4] = Half life in human plasma at 50 uM by LC-MS analysis; format: ADME, cell-free
[5] = Stability of compound in PBS buffer at 0.5 uM measured after 2 hrs by LC-MS analysis; format: physicochemical
[6] = target: 72 kDa type IV collagenase (Homo sapiens, UniProt P08253); test: Drug metabolism in PBS buffer assessed as MMP2 (unknown origin)-mediated PTX formation at 0.5 uM incubated for 2 hrs followed by GSH addition and measured after 2 hrs by LC-MS analysis; format: ADME; details: 4 h
[7] = tested on: MCF7; test: Cytotoxicity against human MCF7 cells assessed as reduction in cell viability measured after 48 hrs in presence of LHRH by MTT assay; format: functional, cell-based
[8] = tested on: MCF7; test: Cytotoxicity against human MCF7 cells assessed as reduction in cell viability measured after 48 hrs in presence of MMP inhibitor ilomastat by MTT assay; format: functional, cell-based
[9] = tested on: MCF7; test: Cytotoxicity against human MCF7 cells assessed as reduction in cell viability measured after 48 hrs in presence of MMP inhibitor ilomastat and LHRH by MTT assay; format: functional, cell-based
[10] = Drug uptake in human MCF7 cells at 20 nM measured after 4 hrs in presence of LHRH by LC-MS analysis; format: ADME, cell-based; details: mcf7, 4 h, 0.02 µM
[11] = Drug uptake in human MCF7 cells at 20 nM measured after 4 hrs in presence of MMP inhibitor ilomastat by LC-MS analysis; format: ADME, cell-based; details: mcf7, 4 h, 0.02 µM
[12] = Drug uptake in human MCF7 cells at 20 nM measured after 4 hrs in presence of MMP inhibitor ilomastat and LHRH by LC-MS analysis; format: ADME, cell-based; details: mcf7, 4 h, 0.02 µM
[13] = tested on: MCF7; test: Induction of apoptosis in human MCF7 cells at IC50 measured after 4 hrs by Annexin-V FITC/propidium iodide staining based flow cytometry; format: functional, cell-based
[14] = tested on: MCF7; test: Cell cycle arrest in human MCF7 cells assessed as increase in accumulation at G2/M-phase at IC50 measured after 4 hrs by […] flow cytometry; format: functional
[15] = target: Tubulin (Homo sapiens) (UniProt P68371+Q9H4B7+P0DPH7+P68366+Q13509+Q71U36+P04350+Q3ZCM7+P07437+P68363+Q9BQE3+Q6PEY2+Q13885+Q9BVA1+Q9BUF5); test: Inhibition of microtubule depolymerization in human MCF7 cells at 1.8 nM measured after 12 hrs by immunostaining based confocal microscopic analysis; format: cell-based
[16] = Toxicity in human MCF7 cells xenografted in BALB/c nude mouse assessed as change in body weight at 8 to 12 umol/kg, ip administered every two days for two weeks; format: organism-based; details: in vivo, 336 h, dose 8-12 µmol/kg, time 2 weeks
[17] = tested on: MCF7; test: Antitumor activity against human MCF7 cells xenografted in BALB/c nude mouse assessed as reduction in tumor volume at 8 umol/kg, ip administered every two days for two weeks relative to control; format: functional; set-up: scale not given: the % may be the effect or the level left; details: dose 8 µmol/kg; time 2 weeks
[18] = Toxicity in human MCF7 cells xenografted in BALB/c nude mouse assessed as morphological changes in spleen at 8 to 12 umol/kg, ip administered every two days for two weeks measured post last dose by H and E staining based histological analysis; format: organism-based; details: in vivo, 336 h, dose 8-12 µmol/kg, time 2 weeks
[19] = Toxicity in human MCF7 cells xenografted in BALB/c nude mouse assessed as morphological changes in kidney at 8 to 12 umol/kg, ip administered every two days for two weeks measured post last dose by H and E staining based histological analysis; format: organism-based; details: in vivo, 336 h, dose 8-12 µmol/kg, time 2 weeks
[20] = tested on: MCF7; test: Induction of apoptosis in human MCF7 cells xenografted in ip dosed BALB/c nude mouse assessed as down regulation of Bcl2 expression administered every two days for two weeks measured post last dose by Western blot analysis; format: functional, organism-based; details: dose 8-12 µmol/kg, time 2.0 weeks
[21] = tested on: MCF7; test: Induction of apoptosis in human MCF7 cells xenografted in ip dosed BALB/c nude mouse assessed as up regulation of cleaved caspase-9 expression administered every two days for two weeks measured post last dose by Western blot analysis; format: functional, organism-based; details: dose 8-12 µmol/kg, time 2.0 weeks
[22] = Drug conversion in tumor of BALB/c nude mouse xenografted with human MCF7 cells assessed as PTX formation at 8 to 12 umol/kg, ip measured after 2 hrs by LC-MS analysis; format: ADME, organism-based, Neoplasm; details: in vivo, dose 8-12 µmol/kg
[23] = Drug conversion in tumor of BALB/c nude mouse xenografted with human MCF7 cells assessed as T2-PTX formation at 8 to 12 umol/kg, ip measured after 2 hrs by LC-MS analysis; format: ADME, organism-based, Neoplasm; details: in vivo, dose 8-12 µmol/kg
[24] = Drug conversion in heart of BALB/c nude mouse xenografted with human MCF7 cells assessed as PTX formation at 8 to 12 umol/kg, ip measured after 2 hrs by LC-MS analysis; format: ADME, organism-based; details: in vivo, dose 8-12 µmol/kg
[25] = Drug conversion in serum of BALB/c nude mouse xenografted with human MCF7 cells assessed as PTX formation at 8 to 12 umol/kg, ip measured after 2 hrs by LC-MS analysis; format: ADME, organism-based; details: in vivo, dose 8-12 µmol/kg
[26] = Drug conversion in liver of BALB/c nude mouse xenografted with human MCF7 cells assessed as T2-PTX formation at 8 to 12 umol/kg, ip measured after 2 hrs by LC-MS analysis; format: ADME, organism-based; details: in vivo, dose 8-12 µmol/kg
[27] = Drug conversion in serum of BALB/c nude mouse xenografted with human MCF7 cells assessed as T2-PTX formation at 8 to 12 umol/kg, ip measured after 2 hrs by LC-MS analysis; format: ADME, organism-based; details: in vivo, dose 8-12 µmol/kg
[28] = Neurotoxicity in BALB/c mouse assessed as increase in pain sensitivity at 12 umol/kg, ip administered every two days for 14 days by cold water tail immersion test; format: toxicity, organism-based; details: in vivo, 336 h, dose 12 µmol/kg, time 14 day
[29] = Neurotoxicity in BALB/c mouse assessed as change in acetylcholine level at 12 umol/kg, ip administered every two days for 14 days measured post last dose by LC-MS analysis; format: toxicity, organism-based; details: in vivo, 336 h, dose 12 µmol/kg, time 14 day
[30] = Neurotoxicity in BALB/c mouse assessed as change in dopamine level at 12 umol/kg, ip administered every two days for 14 days measured post last dose by LC-MS analysis; format: toxicity, organism-based; details: in vivo, 336 h, dose 12 µmol/kg, time 14 day
[31] = Neurotoxicity in BALB/c mouse assessed as change in GABA level at 12 umol/kg, ip administered every two days for 14 days measured post last dose by LC-MS analysis; format: toxicity, organism-based; details: in vivo, 336 h, dose 12 µmol/kg, time 14 day
[32] = Neurotoxicity in BALB/c mouse assessed as change in glutamine level at 12 umol/kg, ip administered every two days for 14 days measured post last dose by LC-MS analysis; format: toxicity, organism-based; details: in vivo, 336 h, dose 12 µmol/kg, time 14 day
[33] = Neurotoxicity in BALB/c mouse assessed as change in histamine level at 12 umol/kg, ip administered every two days for 14 days measured post last dose by LC-MS analysis; format: toxicity, organism-based; details: in vivo, 336 h, dose 12 µmol/kg, time 14 day
[34] = Neurotoxicity in BALB/c mouse assessed as change in serotonin level at 12 umol/kg, ip administered every two days for 14 days measured post last dose by LC-MS analysis; format: toxicity, organism-based; details: in vivo, 336 h, dose 12 µmol/kg, time 14 day
[35] = Myelosuppression in BALB/c mouse assessed as change in granulocyte count at 12 umol/kg, ip administered every two days for 14 days measured post last dose; format: ADME, organism-based; details: in vivo, 336 h, dose 12 µmol/kg, time 14 day

Chain of 72 kDa type IV collagenase (P08253 whole entry): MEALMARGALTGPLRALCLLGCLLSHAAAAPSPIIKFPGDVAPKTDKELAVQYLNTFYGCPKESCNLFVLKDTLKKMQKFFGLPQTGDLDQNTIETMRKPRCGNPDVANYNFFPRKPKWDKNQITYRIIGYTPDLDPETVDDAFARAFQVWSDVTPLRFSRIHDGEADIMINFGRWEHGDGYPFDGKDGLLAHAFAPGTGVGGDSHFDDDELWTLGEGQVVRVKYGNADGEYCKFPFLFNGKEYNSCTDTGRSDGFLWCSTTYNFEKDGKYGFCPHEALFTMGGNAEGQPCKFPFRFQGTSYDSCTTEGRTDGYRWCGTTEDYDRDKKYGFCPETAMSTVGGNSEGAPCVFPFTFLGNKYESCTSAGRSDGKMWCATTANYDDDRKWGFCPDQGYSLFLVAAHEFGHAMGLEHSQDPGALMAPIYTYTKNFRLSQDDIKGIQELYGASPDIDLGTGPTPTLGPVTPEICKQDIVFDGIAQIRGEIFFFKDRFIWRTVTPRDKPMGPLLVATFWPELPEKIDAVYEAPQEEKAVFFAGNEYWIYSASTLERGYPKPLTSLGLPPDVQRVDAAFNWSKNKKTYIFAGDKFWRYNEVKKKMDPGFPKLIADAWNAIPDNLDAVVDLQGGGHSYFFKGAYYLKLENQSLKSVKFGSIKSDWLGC

- half-life at 50 µM [4]: 2 h
- Stabilty [5]: Stable
- Drug metabolism [6]: Metabolite_Detected
- Drug uptake [10]: Active
- Drug uptake [11]: Active
- Drug uptake [12]: Active
- inhibition [15]: Active
- Drug metabolism [22]: Metabolite_Detected
- Drug metabolism [23]: Metabolite_Detected
- Drug metabolism [24]: Metabolite_Notdetected
- Drug metabolism [25]: Metabolite_Notdetected
- Drug metabolism [26]: Metabolite_Notdetected
- Drug metabolism [27]: Metabolite_Notdetected
Structure (SMILES): CC(=O)O[C@H]1C(=O)[C@@]2(C)[C@H]([C@H](OC(=O)c3ccccc3)[C@]3(O)C[C@H](OC(=O)[C@H](OC(=O)OCCSSC[C@H](N)C(=O)N[C@@H](CC(C)C)C(=O)N[C@@H](CC(C)C)C(=O)N[C@@H](CCCCN)C(=O)N[C@@H](CCCNC(=N)N)C(=O)N[C@@H](Cc4ccccc4)C(=O)N[C@@H](Cc4ccccc4)C(=O)N[C@@H](CCCCN)C(=O)N[C@@H](CCCCN)C(=O)N[C@@H](Cc4ccccc4)C(=O)NCC(=O)N[C@@H](C)C(=O)N[C@@H](CC(C)C)C(=O)NCC(=O)N[C@@H](CC(C)C)C(=O)N4CCC[C@H]4C(=O)NCC(=O)N4CCC[C@H]4C(=O)N[C@@H](CCCNC(=N)N)C(=O)N[C@@H](CC(C)C)C(=O)NCC(=O)N[C@@H](Cc4ccc(O)cc4)C(=O)N[C@@H](CO)C(=O)N[C@@H](Cc4c[nH]c5ccccc45)C(=O)N[C@@H](CCCCN)C(=O)NC(=O)C4CCC(=O)N4)[C@@H](NC(=O)c4ccccc4)c4ccccc4)C(C)=C1C3(C)C)[C@]1(OC(C)=O)CO[C@@H]1C[C@@H]2O (stereo not given in full) (H-C(X1)LLKRFFKKFGALGLPGPRLGYSW-X2)
- IC50 [1]: 5.6 nM
- IC50 [2]: 8.3 nM
- IC50 [3]: 800 nM
- Activity [7]: inactive
- Activity [8]: inactive
- Activity [9]: inactive
- Activity [13]: Active
- Activity [14]: Active
- Activity [16]: Non-Toxic
- Activity [17]: 77.2%
- Activity [18]: Non-Toxic
- Activity [19]: Non-Toxic
- Activity [20]: Dose-dependent effect
- Activity [21]: Dose-dependent effect
- Activity [28]: Non-Toxic
- Activity [29]: Non-Toxic
- Activity [30]: Non-Toxic
- Activity [31]: Non-Toxic
- Activity [32]: Non-Toxic
- Activity [33]: Non-Toxic
- Activity [34]: Non-Toxic
- Activity [35]: Non-Toxic
